Literature values in article PMC5036784 (Biophysics, 2011).
Where two headings read alike, the source gives them in different places.

Conditions: for rate constant of membrane binding kFB / rate constant of membrane dissociation kBF: 19F NMR; for time span of the binding and dissociation: timescale

rate constant of membrane binding kFB (ref [3]) [s⁻¹] | time span of the binding and dissociation (ref [3]) | Structure (SMILES) | rate constant of membrane dissociation kBF (ref [3]) [s⁻¹] | rate constant of membrane binding kFB (303K, ref [4]) [s⁻¹] | rate constant of membrane dissociation kBF (303K, ref [4]) [s⁻¹] | binding free energy ΔG (ref [4]) [kcal/mol] | time span of the binding and dissociation (ref [4])
0.2 | 10^−1–10^0 s | O=c1[nH]cc(F)c(=O)[nH]1 [5FU, 5-fluoro-1H-pyrimidine-2,4-dione] | 4.1 | – | – | – | –
– | – | Oc1ccc(C(c2ccc(O)cc2)(C(F)(F)F)C(F)(F)F)cc1 [FBPA, fluorinated bisphenol A] | – | 22 to 280 | 68 to 107 | -4.78 | 10^−3–10^−2 s
